# Measured values reported in patent US20210393645A1, “TREATMENT FOR PROGRESSIVE MULTIPLE SCLEROSIS” (UTI LIMITED PARTNERSHIP, priority 2016, published 2021).
# Counter-ions that a name gives are not always drawn.
# Tests used:
# human neurons [1] = experiment: Iron (FeSO4) mediated neurotoxicity screening, MAP-2 positive neurons counted; assay type: cell-based
# Outline: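 Fetal human neurons (15-20 wk), plated with cytosine arabinoside, were pre-incubated 1 h with compounds (10 mM DMSO stocks) before FeSO4 at 25-50 μM final. Cells fixed a day later; MAP-2 immunostaining plus Hoechst nuclei imaged automatically, sites per well averaged; quadruplicates.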
# human neurons [2] = experiment: Live cell imaging of propidium iodide positive neurons challenged with FeSO4; assay type: cell-based; conditions: FeSO4 50 μM, pre-treatment 1 h
# Method: Neurons were prepared as described above. Directly after the addition of FeSO4 to healthy neurons, the live cell-permeant Hoechst 33342 (1:2 diluted in AIM-V medium, nuclear blue; ThermoFisher Scientific, Grand Island, NY, USA) and the live cell-impermeable propinium iodide (PI, 1:20 diluted in AIM-V medium) were added in a volume of 20 μI (Sigma-Aldrich). In compromised cells, PI could now diffuse across the plasma membrane. Live cell imaging was performed using the automated ImageXpress® imaging system under controlled environmental conditions (37° C. and 5% CO2). Images were taken from 9 sites per well at baseline and then every 30 min for 12h. After export with MetaXpress®, videos were edited with ImageJ (NIH) in a uniform manner. Nuclei were pseudo colored in cyan, PI-positive cells in red.
# Live cell imaging over 12 h supported the neuroprotective effects of drugs. We selected indapamide and desipramine for live imaging studies.
# T-lymphocytes = experiment: Cell cycle analysis of activated splenocytes by flow cytometry (propidium iodide); assay type: cell-based, mouse
# Method: Two days after activation and drug treatment splenocytes were harvested, washed with PBS followed by resuspension in PBS with 2% FBS. Cell cycle analysis was performed taking advantage of propidium iodide staining (50 μg/ml) using an established protocol (Besson and Yong, 2000). Cells were washed in cold PBS and resuspended in PI/Triton X-100 staining solution (10 ml 0.1% (v/v) Triton X-100 in PBS with 2 mg DNAse-free RNAse A and 0.4 ml of 500 μg/ml PI), followed by incubation at 4° C. for 30 min. Stained cells were analyzed on a FACSCalibur™ with the software CellQuest™ (BD Biosciences). Cell cycle analysis was conducted using the software ModFit LT, version 3.3 (Verity Software House Inc.).
# Cells were identified by gating into the lymphocyte population, followed by single cell gating to exclude doublets and aggregates. This was followed by identification of the G0/G1 population and processing with the software ModFit LT, version 3.3 (Verity Software House Inc.) to calculate the percentage of cells in different cell cycles.
# B-cells = experiment: TNF-α release of activated B-cells (ELISA); assay type: cell-based, human; conditions: BCR/anti-CD40L/IL-4 activation
# Method: Venous blood from healthy volunteers was obtained and peripheral blood mononuclear cells (PBMCs) were isolated by Ficoll gradient centrifugation (1800 RPM, 30 min). From PBMCs, B-cells were isolated by positive selection with CD19 directed microbeads (Stemcell Technologies). Purity was assessed by FACS after staining for CD19 (Stemcell Technologies). Cells were plated in a concentration of 2.5×10^5 cells/well in X-VIVO™ medium (Lonza) supplemented with 1% penicillin/streptomycin and 1% Glutamax and treated with drugs for 1 h. […] Medium as well as respective drugs were re-added followed by application of ^3H-thymidine in a concentration of 1 μCi per well to investigate proliferation.
# C57BL/6 mice = experiment: Histological analyses of the spinal cord of EAE mice (HE/LFB, Iba1, Bielschowsky); assay type: in vivo, mouse; conditions: 25 mg/kg IP from day 0
# Text: Spinal cords and cerebella were removed. […] Cervical and lumbar cords were snap frozen.
# [3] = test system: Ifng, Tnfa, Il-17 and Ccl2 transcripts; experiment: RT-PCR of inflammatory transcripts in lumbar spinal cord of EAE mice; assay type: in vivo, mouse; conditions: 25 mg/kg IP from day 0, sacrifice day 15
# Method: Lumbar spinal cords were harvested, snap frozen in liquid nitrogen and stored in -80° C. Samples were homogenized in 1 ml Trizol followed by the addition of 200 μI chloroform. […] RNA was extracted using the RNeasy Mini Kit according to the manufacturer's instruction (Qiagen). RNA concentrations were measured using a Nanodrop (Thermo Fisher Scientific). cDNA preparation was performed using the RT2 First Strand kit (Qiagen) with 1μg of RNA according to the manufacturer's instructions. Real time PCR was performed using the QuantStudio 6 Flex (Applied Biosystems by Life Technologies) with FAST SYBR Green and primers for Gapdh (Qiagen) as housekeeping gene, lfn-γ (Qiagen, QT01038821), Tnfa (Qiagen, QT00104006), II-17 (SABiosciences, PPM03023A-200) and CcI2 (Qiagen, QT00167832). Relative expression was calculated using the ΔΔCT method with Gapdh as housekeeping gene. Data were normalized to gene expression in naïve mice.
# microglia = conditions: shown previously; cited from earlier work
compound,measurement,setting,value
CN(C)CCCN1c2ccccc2CCc2ccc(Cl)cc21 [CLOMIPRAMINE HYDROCHLORIDE],viability at 10 µM,"human neurons [1]; Homo sapiens, Neuron, drug 10 μM 1 h before FeSO4 25 or 50 μM, MAP-2 neurons after 24 h, read-out: Drug % control (mean): number of neurons normalized to untreated control",107%
same,concentration from which neuroprotection against iron toxicity is significant,human neurons [1]; concentration response,100 nM
same,Drug % control (mean): number of neurons normalized to untreated control,"human neurons [1]; drug 10 μM 1 h before FeSO4 25 or 50 μM, MAP-2 neurons after 24 h, HYDROCHLORIDE",107.30%
same,protection from FeSO4-mediated neurotoxicity (in words),"human neurons [1]; drug 10 μM, human neurons",strong protection
same,number of PI-positive neurons in response to FeSO4 over 12 h,human neurons [2],attenuated
same,"concentration from which cell cycle arrest is seen (more cells in G1, less in S-phase)",T-lymphocytes,2 µM
same,concentration from which production of TNF-α of activated B-cells is reduced,B-cells,2 µM
same,axonal damage (Bielschowsky stain),C57BL/6 mice,significantly less axonal damage
same,histological score of the spinal cord (inflammation),C57BL/6 mice,1.7
same,microglial activation (Iba1 staining),C57BL/6 mice,prevented microglial activation
same,"elevation of transcripts encoding Ifng, Tnfa, Il-17 and Ccl2 in spinal cord",[3],abrogated
same,microglia inhibitory activity,microglia,did not have microglia inhibitory activity
